The values below come from patent US20170246137A1, “SULFESTROL FOR TREATING CANCER” (CHAMAELEO PHARMA BVBA, priority 2012, published 2017).

Data set [1] is described as follows: In vitro metabolism in human liver microsomes (STS and CYP). Format: in vitro ADME. More on the design: Clint: unit not given here. Conditions: for Clint / Contribution to metabolism / Half-life: 5 μM. The procedure: In vitro metabolism pathways of DES, Mono-Sulfestrol and Di-Sulfestrol in human liver microsomes were investigated.
Special emphasis was put on desulfatation by steroid sulfatase (STS) and oxidation by cytochrome P (CYP) metabolism. Liver microsomes (Celsis in vitro Technologies) were used at a concentration of 0.5 mg/ml in a volume of 600 μl phosphate buffer pH 7.4. Estrone-3-sulfate was used as positive control.
5 μM of each compound (test and control compound) was added to the liver microsomes and the mixture was incubated at 37° C. for 5, 10, 20, 30, 50, 90 and 120 minutes. After incubation, aliquots of 45 μl were taken which were subsequently quenched with 150 μl ice cold methanol. Aliquots were incubated ≧1 h at −20° C. for protein precipitation. After precipitation, samples were centrifuged and remaining supernatant was used for analysis with LC-MS/MS. Half life of the compounds, speed of metabolism or intrinsic clearance (Clint), and contribution to metabolism of CYP and STS metabolism were calculated based on the data obtained at each time point.

Another data set has as its system LNCaP. In words: In vitro direct cytotoxicity, Cell titer Blue viability, 72 hrs. Format: cell-based. The procedure:
(§1) Cells were harvested, washed, re-suspended into growth medium and counted.
(§2) Stocks of all compounds were then serially diluted. […] Positive control was Taxotere. Taxotere was diluted in 100% DSMO to give a stock concentration of 1 mM. Stock was serially diluted. Final concentrations to which cells were exposed were 1000, 333.3, 111.1, 37.0, 12.3, 4.1, 1.4, 0.5, and 0.2 nM.
Background: The colour change of resazurin is a common sign of viable cells or microbes.

The next data set deals with DU-145. The description is as above. Format: cell-based. The procedure:
as §1, §2

Setting [2] is: + NADPH + 667-Coumate (STS inactive, CYP active).
Where [3] appears, read: nothing added (STS active, CYP inactive).

Consider “4-(4-(4-oxidophenyl)hex-3-en-3-yl)phenyl sulfate [Mono-Sulfestrol]”, for which, in data set [1], the “metabolism pathway in human liver microsomes (in words)” value was “metabolized by both STS and CYP enzymes”. Besides, the Clint in data set [1] (setting [2]) is 51; in data set [1] (setting [3]) it was 22. The Contribution to metabolism in data set [1] (setting [2]) turned out to be 44%; in data set [1] (setting [3]), 19%. For the same substance, the Half-life amounted to 27 min in data set [1] (setting [2]) and 63 min in data set [1] (setting [3]). Moreover, the “cytotoxicity in vitro (in words)” value in the data set with LNCaP and in the data set on DU-145 (DU-145) was “inactive” throughout. Further, the IC50 value result in the data set on LNCaP (hormone-dependent prostate cancer cell line, 72 hrs) is “Not active”; in the data set with DU-145 (DU-145, hormone-independent prostate cancer cell line, 72 hrs), “Not active”.
